# Assay results taken from patent US20240158439A1, “INHIBITORS OF ANTIGEN PRESENTATION BY MHC CLASS II HLA-DRB1*15:01 MOLECULES WITH ENHANCED METABOLIC STABILITY” (Provid Pharmaceuticals Inc., priority 2021, published 2024).
# Read-outs that look alike come from different tables or passages of the source. *1 amine or outer side, *2 acyl side, *3 side chain or, on linkers, in order; H or OH if unused. Where a SMILES comes first, the peptide text is derived from it. [ ]: non-standard residue; d: D form. The star is where a group is joined. Trp(1-Me) = Cn1cc(C[C@H](N)C(=O)O)c2ccccc21; Ala(4-thiazolyl) = N[C@@H](Cc1cscn1)C(=O)O; X3 = Nc1nc(C[C@H](N[*:1])C(=O)[*:2])c[nH]1; Oic = O=C(O)[C@@H]1C[C@@H]2CCCC[C@@H]2N1; Bta = N[C@@H](Cc1csc2ccccc12)C(=O)O; Gly(cPent) = N[C@H](C(=O)O)C1CCCC1; hCit = NC(=O)NCCCC[C@H](N)C(=O)O; Tic = O=C(O)[C@@H]1Cc2ccccc2CN1; Agb = N=C(N)NCC[C@H](N)C(=O)O; Chg = N[C@H](C(=O)O)C1CCCCC1; Morpholide = C1CN(*)CCO1; βAla = NCCC(=O)O; Sar = CNCC(=O)O
# Biological target: T1, HLA-DRB1*15:01 (Homo sapiens, UniProt P01903+P01911)
# T1 construct: endogenous in cells; host or cells: EBV homozygous cell lines (human)
# Assay: HLA II binding assay (competitive, biotinylated reference peptide)
# [1] = Table 2, DRB1*15:01 binding, unit inferred, nM, read-out: Avg IC50
Compound,IC50 [1],IC50 (read-out: binding IC50)
"CC(=O)N[C@H](C(=O)N[C@H](C(=O)N[C@@H](CCCNC(=N)N)C(=O)N1[C@H](C(=O)N[C@@H](Cc2ccccc2)C(N)=O)C[C@@H]2CCCC[C@@H]21)C1CCCCC1)C(C)C [PV-589, reference compound] (Ac-V[Chg]R[Oic]F-NH2)",474 nM,–
CC(C)[C@H](NC(=O)CCN)C(=O)N[C@H](C(=O)N[C@@H](Cc1cscn1)C(=O)N1Cc2ccccc2C[C@H]1C(=O)N[C@@H](Cc1ccccc1)C(N)=O)C1CCCCC1 [PV-833] (H-[βAla]V[Chg][Ala(4-thiazolyl)][Tic]F-NH2),17 nM,–
CC(=O)N[C@H](C(=O)N[C@@H](CCCNC(=N)N)C(=O)N1Cc2ccccc2C[C@H]1C(=O)N[C@@H](Cc1cn(C)c2ccccc12)C(N)=O)C1CCCCC1 [PV-508] (Ac-[Chg]R[Tic][Trp(1-Me)]-NH2),213 nM,–
CC(=O)N[C@H](C(=O)N[C@H](C(=O)N[C@@H](Cc1c[nH]c(N)n1)C(=O)N1Cc2ccccc2C[C@H]1C(=O)N[C@@H](Cc1ccccc1)C(N)=O)C1CCCCC1)C(C)C [PV-839] (Ac-V[Chg][X3][Tic]F-NH2),25 nM,–
CC(=O)N[C@H](C(=O)N[C@@H](CCCNC(=N)N)C(=O)N1Cc2ccccc2C[C@H]1C(=O)N[C@@H](Cc1c[nH]c2ccccc12)C(N)=O)C1CCCCC1 [PV-507] (Ac-[Chg]R[Tic]W-NH2),48 nM,–
CC(=O)N[C@H](C(=O)N[C@H](C(=O)N[C@@H](CCCNC(=N)N)C(=O)N1Cc2ccccc2C[C@H]1C(=O)N[C@@H](Cc1ccccc1)C(=O)N1CCOCC1)C1CCCCC1)C(C)C [PV-630] (Ac-V[Chg]R[Tic]F-Morpholide),–,33 nM
CC(=O)N[C@H](C(=O)N[C@H](C(=O)N[C@@H](C)C(=O)N1Cc2ccccc2C[C@H]1C(=O)N[C@@H](Cc1ccccc1)C(N)=O)C1CCCCC1)C(C)C [PV-560] (Ac-V[Chg]A[Tic]F-NH2),43 nM,–

# Next, values leading:
IC50 [1],IC50 (read-out: binding IC50),Compound
2.1 nM,–,CC(=O)N[C@H](C(=O)N[C@H](C(=O)N[C@@H](CCCNC(=N)N)C(=O)N1Cc2ccccc2C[C@H]1C(=O)N[C@@H](Cc1csc2ccccc12)C(N)=O)C1CCCCC1)C(C)C [PV-478] (Ac-V[Chg]R[Tic][Bta]-NH2)
6.7 nM,–,CC(=O)N[C@H](C(=O)N[C@H](C(=O)N[C@@H](CCCNC(=N)N)C(=O)N1Cc2ccccc2C[C@H]1C(=O)N[C@@H](Cc1ccccc1)C(N)=O)C1CCCC1)C(C)C [PV-573] (Ac-V[Gly(cPent)]R[Tic]F-NH2)
3 nM,–,CNCC(=O)N[C@H](C(=O)N[C@H](C(=O)N[C@@H](CCCNC(=N)N)C(=O)N1Cc2ccccc2C[C@H]1C(=O)N[C@@H](Cc1ccccc1)C(N)=O)C1CCCCC1)C(C)C [PV-636] (H-[Sar]V[Chg]R[Tic]F-NH2)
7 nM,–,CC(=O)N[C@H](C(=O)N[C@H](C(=O)N[C@@H](CCCCNC(N)=O)C(=O)N1Cc2ccccc2C[C@H]1C(=O)N[C@@H](Cc1ccccc1)C(N)=O)C1CCCCC1)C(C)C [PV-640] (Ac-V[Chg][hCit][Tic]F-NH2)
5.3 nM,–,CC(=O)N[C@H](C(=O)N[C@H](C(=O)N[C@@H](CCNC(=N)N)C(=O)N1Cc2ccccc2C[C@H]1C(=O)N[C@@H](Cc1ccccc1)C(N)=O)C1CCCCC1)C(C)C [PV-562] (Ac-V[Chg][Agb][Tic]F-NH2)
